Assay results: the supplement of paper PMC11061612

Assays:
Test in all cases: combination Emax (second highest fraction inhibited in the dose matrix, 72 h); higher = more inhibition; extreme values may be limits of the assay
[1] = tested on: BT-20 (Breast Carcinoma)
How it was run: (§1)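 Cell lines grown in DMEM/F12 or RPMI with 10% FBS were plated in 1536-well plates and held 24 hours at 37°C, 5% CO2 before 72 hours of exposure to two-drug dose matrices, with DMSO typically at 0.2%. CellTiter-Glo 2.0 luminescence gave viability, which was converted to inhibition. Vehicle wells were set to 0 and blank wells to 1. Combination Emax is the second-highest inhibition in the matrix, and Bliss excess is the observed combination effect minus the expected EA + EB − EA·EB, where EA and EB are the single-agent effects.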

[2] = tested on: EW-18 (Ewing's Sarcoma)
How it was run: as §1

[3] = tested on: GI-1 (Glioblastoma)
How it was run: as §1

[4] = tested on: HSC-2 (Oral Cavity Carcinoma)
How it was run: as §1

[5] = tested on: HuP-T3 (Pancreatic Carcinoma)
How it was run: as §1

[6] = tested on: IMR-5 (Neuroblastoma)
How it was run: as §1

[7] = tested on: JHH-7 (Hepatocellular Carcinoma)
How it was run: as §1

[8] = tested on: KP-2 (Pancreatic Carcinoma)
How it was run: as §1

[9] = tested on: LC4-1 (B-Lymphoblastic Leukemia)
How it was run: as §1

[10] = tested on: LOU-NH91 (Squamous Cell Lung Carcinoma)
How it was run: as §1

[11] = tested on: NB7 (Neuroblastoma)
How it was run: as §1

[12] = tested on: NCI-N87 (Gastric Carcinoma)
How it was run: as §1

[13] = tested on: OCUB-M (Breast Carcinoma)
How it was run: as §1

[14] = tested on: OCUM-1 (Gastric Carcinoma)
How it was run: as §1

[15] = tested on: OVISE (Ovarian Carcinoma)
How it was run: as §1

[16] = tested on: TGBC11TKB (Gastric Carcinoma)
How it was run: as §1

## CCc1c2c(nc3ccc(O)cc13)-c1cc3c(c(=O)n1C2)COC(=O)[C@]3(O)CC [SN-38] + O=C(c1cc(Cc2n[nH]c(=O)c3ccccc23)ccc1F)N1CCN(C(=O)C2CC2)CC1 [Olaparib] (first compound max 0.3 µM, 7x7, partner max 10 µM)
[1]
  combination Emax: 0.855
[2]
  combination Emax: 0.773
[3]
  combination Emax: 0.954
[4]
  combination Emax: 0.977
[5]
  combination Emax: 0.683
[6]
  combination Emax: 1
[7]
  combination Emax: 0.289
[8]
  combination Emax: 0.55
[9]
  combination Emax: 0.948
[10]
  combination Emax: 0.883
[11]
  combination Emax: 0.967
[12]
  combination Emax: 0.722
[13]
  combination Emax: 0.922
[14]
  combination Emax: 0.645
[15]
  combination Emax: 0.293
[16]
  combination Emax: 0.792
